{"source": "paper PMC10728220", "about": "“Novel 3-(pyrazol-4-yl)-2-(1H-indole-3-carbonyl)acrylonitrile derivatives induce intrinsic and extrinsic apoptotic death mediated P53 in HCT116 colon carcinoma” (Scientific Reports, 2023)", "key": {"Human caspase-9": {"system": "Human caspase-9", "assay": "ELISA caspase 9 production in HCT116", "format": "cell-based", "conditions": "HCT116 treated with 7f", "experimental": "The compound 7f induced caspase 9 production in a dose–response approach. This was achieved by using the following concentrations of chalcone 7f (1.6, 3.1, 6.3, 12.5, 25, 50, 100 ng/ml). There was a continuing rise in the caspase 9 production level by increasing the concentrations regularly. Compound 7f was able to stimulate the production of caspase 9 by inducing a 21.43 ng/ml of caspase 9.\nThe quantitative measurements of Human caspases-3, -8, and -9 concentrations in HCT116 cell culture lysates were performed using ELISA assay. The protocols were followed up based on the manuscript instructions described in the following kits; Invitrogen human Caspase-3 Elisa Kit, Catalog # KHO1091, DRG® human Caspase-8 ELISA Kit, Catalog # (EIA-4863), and DRG® human Caspase-9 ELISA Kit, Catalog # (EIA-4860)respectively. In short, the procedure described in the above protocols was as instructed; all reagents, standards, and samples were prepared. Then, 100 μL of standard or samples were added to each well and incubated at room temperature for 2 h. […] All readings were measured immediately at a wavelength of 450 nm. From the readings of the standards, a standard curve was plotted using curve fitting software. Then, the concentrations for unknown samples and controls were measured from the standard curve."}, "HCT116 cells [1]": {"system": "HCT116 cells", "assay": "Flow cytometric analysis of cell cycle", "format": "cell-based, human", "conditions": "HCT116, 6.76 µg/mL, 48 h", "experimental": "Chalcone 7f was selected for more investigations, in attempts to find its molecular action on cancer cells. It illustrated high and very interesting cytotoxicity toward the tested colon cancer cell line (HCT116) as mentioned in the above MTT assay data (Table 1). A flow cytometric report was utilized in this recent paper to investigate the effect of our novel acrylonitrile compound 7f on the cell cycle, HCT116 cells were treated with compound 7f at a dose of (6.76 µg/mL) for 48 h and subjected to flow cytometric analysis.\nIn this study, non-treated HCT116 cells were used as a negative control. After the incubation period of 48 h, HCT116 treated cells were centrifuged at 1,200 rpm at 4 °C for 10 min. After disposing of the supernatant, the cell pellet was suspended in phosphate-buffered saline (PBS) and then centrifuged at 1200 rpm for 10 min. 70% cold ethanol was added overnight to allow the fixation of the cell pellet. After the step of centrifugation, the propidium iodide (PI) mixture was added to the cell pellet for 30 min at room temperature in the darkness. Subsequently, cells were subjected to Epics XL-MCL flow cytometer (BeckmanCoulter, Miami, FL) for analysis of DNA content. The percentage of cells in different phases of the cell cycle was analyzed by Multicycle software (Phoenix Flow Systems, San Diego, CA)."}, "HCT116 cells [2]": {"system": "HCT116 cells", "assay": "DNA fragmentation, agarose gel electrophoresis", "format": "cell-based, human", "conditions": "HCT116, 6.76 µg/mL, 48 h, 2% agarose gel", "experimental": "Both control and treated cells were incubated for 48h. Then cells of both two samples were harvested for DNA fragmentation measurements using a SIGMA DNA fragmentation imaging kit with catalogue number 06432344001. To verify the validity of the DNA of both control and cells treated with 6.76 µg/mL of chalcone 7f, we carried out the loading of all samples on 2% agarose gel containing 1 µg/mL ethidium bromide and visualized by ultraviolet transillumination.\nThe DNA gel electrophoresis laddering assay in the HCT116 cell line was performed according to the instructions of Yawata[87] with some modifications. Briefly, after 48 h of exposure of the HCT116 cancer cell line to compound 7f in Petri dishes (60 × 15 mm, Greiner), the cells were suspended in 1 ml of medium and then centrifuged at 900 rpm for 10 min. […] About 1 × 10^6 cells of HCT116 were treated with the IC50 value of compound 7f. Then, the treated cells were collected via trypsinization and washed with Dulbecco’s Phosphate Buffered Saline. Afterwards, the cells were treated with the lysis buffer (5 mM ethylenediaminetetraacetic acid (EDTA), 0.5% Triton X-100, 10 mM Tris (pH 7.4), and 150 mM NaCl) for 35 min on ice. […] At last, the fragmented DNA percentage was detected by performing gel electrophoresis using 2% agarose gel containing 0.1 μg/ml ethidium bromide (Supplementary File 1)."}}, "note": "“Also recorded” adds a separate entry of the source."}
{"molecule": "N#C/C(=C\\c1cn(-c2ccccc2)nc1-c1ccc([N+](=O)[O-])cc1)C(=O)c1c[nH]c2ccccc12", "note": "[Compound 7f, (E)-2-(1H-Indole-3-carbonyl)-3-(3-(4-nitrophenyl)-1-phenyl-1H-pyrazol-4-yl)acrylonitrile]", "values": [{"measurement": "caspase 9 production", "setting": "Human caspase-9", "value": 21.43, "unit": "ng/mL"}, {"measurement": "caspase 9 production, fold increase compared to control cells", "setting": "Human caspase-9", "value": "~4.641", "unit": "fold"}, {"measurement": "DNA content in G2/M phase (%DIP G2/M)", "setting": "HCT116 cells [1]; control 13.68%", "value": 2.55, "unit": "%"}, {"measurement": "cells in S phase (%DIP S)", "setting": "HCT116 cells [1]; control 41.04%", "value": 46.12, "unit": "%"}, {"measurement": "cell accumulation in G1 phase (%DIP G1)", "setting": "HCT116 cells [1]; control 45.28%", "value": 51.33, "unit": "%"}, {"measurement": "effect on genomic DNA (DNA fragmentation)", "setting": "HCT116 cells [2]", "value": "completely deteriorated the genomic DNA; also recorded: completely degraded the genomic DNA"}]}
